Experimental data: PMC10721329, “Quisinostat is a brain-penetrant radiosensitizer in glioblastoma” (JCI Insight, 2023)
Where “and” joins values, the source holds several entries; their conditions need not be identical. Identical values can stand only once.

Test: Stability in mouse plasma with esterase inhibitors (BNPP, PMSF, DTNB)
Format: in vitro ADME
Settings: 37 C, QST conc 500nM
Protocol: Hydroxamic acid–based compounds have been reported to display poor stability and high plasma clearance due to the presence of arylesterases and carboxylesterases in rodent blood ([34]). Therefore, we measured the stability of QST in mouse plasma and brain to determine whether drug degradation occurred during our sample preparations and equilibrium dialyses for the determination of unbound drug level (performed at 37°C). […] QST degradation was also observed in mouse brain homogenate (Figure 6B). However, perfusion of mice before brain collection prevented rapid drug degradation in the brain matrix. […] Degradation of QST can also be constrained if plasma and brain samples are processed at 4°C (Supplemental Figure 4A). All subsequent sample preparations were therefore performed on ice-cold baths to avoid degradation of QST in our PK analyses. […] The observed stability is probably due to the absence of esterases in human matrices, which are responsible for degradation of QST ([34]). Because we employed QST in several in vitro studies (Figures 1–4), the stability of the molecule was also tested in the cell media used to culture GSCs (neurobasal medium; see Methods).
Stability Study in Mouse Plasma, Mouse Brain, Human Plasma, Human Brain, and Neural […]
The stability of QST was determined in BALB/c mouse plasma, male nude athymic perfused and nonperfused mouse brain homogenate (1:9 w/v of PBS; pH 7.4), human brain (obtained from VRL Eurofins) homogenate (1:4 w/v of PBS; pH 7.4), pooled human plasma (Innovative Research), and neurobasal media. QST stock solutions (1 mM) were prepared in acetonitrile, subsequently diluted in a 40% methanol mixture, and added t o the matrices to make final concentrations of 100 nM or 10 nM. Then 50 or 30 µL of either plasma or brain homogenate containing QST were aliquoted into 1.5-mL microcentrifuge tubes (Eppendorf) and were incubated at either 4 °C or 37 °C for 0, 2, 4, 6, 12, or 24 hours (n = 3 at each time point).
The stability of QST in mouse plasma was also tested at 0, 2, 8, 16, or 24 hours (n = 3 at each time point) in the presence of esterase inhibitors: 0.25 mM BNPP, 1mM dithiobis(2-nitrobenzoic acid) (DTNB), or 1.25 mM phenylmethylsulfonyl fluoride (PMSF). Plasma and brain homogenate samples were stored at −80 °C until LC-MS/MS analysis. […]
Supplemental Figure 4. Stability of QST in mouse plasma is improved upon addition of esterase inhibitors. (A) Stability of QST (100 nM) in mouse plasma and mouse brain homogenate when sample preparation is performed at 4 °C. (B) Stability of QST (500 nM) in mouse plasma spiked with 3 different esterase inhibitors: 0.25 mM bis(p-nitrophenyl) phosphate (BNPP), 1.25 mM phenylmethylsulfonyl fluoride (PMSF), and 1 mM dithiobis(2-nitrobenzoic acid) (DTNB) over the course of 24 hours at 37 °C. (C) Stability of QST (10 nM and 100 nM) in neurobasal cell culture medium over the course of 24 hours at 37 °C.

Cn1cc(CNCC2CCN(c3ncc(C(=O)NO)cn3)CC2)c2ccccc21 [QST, quisinostat]
%stability (mouse plasma with 0.25mM BNPP, time 0): 107.9% and 91.2% and 100.9%
%stability (mouse plasma with 0.25mM BNPP, time 0, mean): 100.0%
%stability (mouse plasma with 0.25mM BNPP, time 2): 64.6% and 83.0% and 82.7%
%stability (mouse plasma with 0.25mM BNPP, time 2, mean): 76.8%
%stability (mouse plasma with 0.25mM BNPP, time 8): 61.2% and 65.8% and 67.9%
%stability (mouse plasma with 0.25mM BNPP, time 8, mean): 65.0%
%stability (mouse plasma with 0.25mM BNPP, time 16): 53.0% and 52.9% and 53.7%
%stability (mouse plasma with 0.25mM BNPP, time 16, mean): 53.2%
%stability (mouse plasma with 0.25mM BNPP, time 24): 47.9% and 55.7% and 51.9%
%stability (mouse plasma with 0.25mM BNPP, time 24, mean): 51.8%
%stability (mouse plasma with 1mM DTNB, time 0): 107.9% and 91.2% and 100.9%
%stability (mouse plasma with 1mM DTNB, time 0, mean): 100.0%
%stability (mouse plasma with 1mM DTNB, time 2): 20.7% and 19.1% and 20.9%
%stability (mouse plasma with 1mM DTNB, time 2, mean): 20.2%
%stability (mouse plasma with 1mM DTNB, time 8): 0.277% and 0.7%
%stability (mouse plasma with 1mM DTNB, time 8, mean): 0.5%
%stability (mouse plasma with 1mM DTNB, time 16): 0.6% and 0.5%
%stability (mouse plasma with 1mM DTNB, time 16, mean): 0.545%
%stability (mouse plasma with 1mM DTNB, time 24): 0.7% and 0.6% and 0.25%
%stability (mouse plasma with 1mM DTNB, time 24, mean): 0.5%
%stability (mouse plasma with 1.25mM PMFS, time 0): 107.9% and 91.2% and 100.9%
%stability (mouse plasma with 1.25mM PMFS, time 0, mean): 100.0%
%stability (mouse plasma with 1.25mM PMFS, time 2): 61.9% and 64.2% and 59.2%
%stability (mouse plasma with 1.25mM PMFS, time 2, mean): 61.8%
%stability (mouse plasma with 1.25mM PMFS, time 8): 26.3% and 24.6% and 23.5%
%stability (mouse plasma with 1.25mM PMFS, time 8, mean): 24.8%
%stability (mouse plasma with 1.25mM PMFS, time 16): 6.1% and 5.9% and 7.1%
%stability (mouse plasma with 1.25mM PMFS, time 16, mean): 6.4%
%stability (mouse plasma with 1.25mM PMFS, time 24): 4.3% and 3.8%
%stability (mouse plasma with 1.25mM PMFS, time 24, mean): 4.0%
